Measured values reported in PubChem BioAssay AID1985 (Southern Research Specialized Biocontainment Screening …, 2009).

What follows are compounds tested on S. Typhi PhoP-promoter GFP reporter, fluorescence, 4 h (assay: modified counter assay using GFP fluorescence, PhoP regulon inhibitor project, dose response (AID 1985)).
With `Cc1ccc(C(=O)Sc2cccccc2=O)cc1` the IC50 was 1.97 µM. In the case of `Cc1cc([N+](=O)[O-])cc(/C=N\NC(=O)C2COc3ccccc3O2)c1O` (stereo not drawn), the IC50 is reported as 23.3 µM. `O=C(c1ccc([N+](=O)[O-])o1)N1CCOCC1` gave an IC50 of 24.4 µM. With `O=C(/C=C(\O)c1ccccc1)C(=O)NNC(=O)c1ccccc1` the IC50 was 19.7 µM. `O=C(C[n+]1ccc(-c2ccccc2)cc1)Nc1ccc([N+](=O)[O-])cc1` gave an IC50 of 27.3 µM. `Cc1cccc(C(=O)NCCC(=O)Nc2ccc(F)c([N+](=O)[O-])c2)c1` showed an IC50 of 144 µM. In the case of `Cc1ccc2oc(=O)c(/C=C(\O)c3ccccc3)nc2c1`, the IC50 is reported as 46.7 µM. `CC(C(=O)NC1C=CS(=O)(=O)C1)N1C(=O)/C(=C/c2ccc(Cl)cc2)SC1=S` (stereo not drawn) was tested, and the IC50 was 22.2 µM. In the case of `Cc1ccc(-c2cc(-c3ccc(C)cc3)[n+](-c3ccccc3)c(-c3ccc(C)cc3)c2)cc1`, the IC50 is reported as 34.5 µM. For `CC(C)Cc1c(O)nc(SCC(=O)Nc2ccc3c(c2)CCC3)[nH]c1=O`, the IC50 was 95.4 µM. For `Cc1ccc(S(=O)(=O)NNc2ccccc2)c(C)c1`, the IC50 was 117 µM. `Cc1occc1C(=O)N/N=C/c1cccs1` showed an IC50 of 45.7 µM. `CCC(C)(C)c1ccc(OCCCC[n+]2ccccc2)c(C(C)(C)CC)c1` showed an IC50 of 67.9 µM. `S=C(Nc1ccc(Cl)c(Cl)c1)NC1CCN(Cc2ccccc2)CC1` showed an IC50 of 38 µM. Work on `Cc1ccc(C(=O)NNC(=S)NC(=O)COc2ccccc2)cc1` yielded an IC50 of 47.5 µM. With `CC1(CC(=O)N/N=C/c2cc([N+](=O)[O-])c(O)cc2O)OCCO1` the IC50 was 38.4 µM. `CCN1/C(=C/C=C/C=C/c2sc3ccccc3[n+]2CC)Sc2ccccc21` was tested, and the IC50 was 30.9 µM. In the case of `O=C(N/N=C/c1ccc([N+](=O)[O-])s1)c1ccccc1Br`, the IC50 is reported as 27.7 µM. `CCC(/C=C1\Sc2ccc(OC)cc2N1CCO)=C\c1sc2ccc(OC)cc2[n+]1CCO` showed an IC50 of 95 µM. `Cc1ccc(S(=O)(=O)NNc2ccccc2)cc1` gave an IC50 of 134 µM. `CCn1cc(C(=O)O)c(=O)c2cc(F)c(N3CCN(C)CC3)cc21` showed an IC50 of 0.427 µM. For `O=C(NCCCN1CCN(c2ccc(F)cc2)CC1)Nc1ccc([N+](=O)[O-])cc1`, the IC50 was 117 µM. `Cc1cc([N+](=O)[O-])cc(/C=N/n2c(C)nc3ccccc3c2=O)c1O` showed an IC50 of 53.6 µM. `O=C(CNC(=O)c1ccccc1)N/N=C/c1ccc([N+](=O)[O-])s1` showed an IC50 of 19.5 µM. `CCOc1ccc(-c2cc(C)[n+](CCN(CC)CC)c(-c3ccc(OCC)cc3)c2)cc1` gave an IC50 of 105 µM. In the case of `O=[N+]([O-])c1ccc(/C=[N+](\[O-])CCO)o1`, the IC50 is reported as 33.6 µM. With `Cc1cc(NC(=O)c2ccccc2)sc1C` the IC50 was 84.3 µM. With `O=C(Nc1ccccc1)Nc1nccs1` the IC50 was 128 µM. `COc1c(N2CCN(C(=S)Nc3ccccc3F)C(C)C2)c(F)cc2c(=O)c(C(=O)O)cn(C3CC3)c12` (stereo not drawn) was tested, and the IC50 was 0.441 µM. Compound `Clc1ccc(CN2CCc3c([nH]c4ccccc34)C2)cc1Cl` has an IC50 of 48.5 µM. For `Nc1nc(F)nc2c1ncn2[C@@H]1O[C@H](CO)[C@@H](O)[C@H]1O`, the IC50 was 3.76 µM. `O=C(N/N=C\c1c[nH]c2ccccc12)c1ccc(O)cc1` was tested, and the IC50 was 134 µM. With `NC1=C(Br)C(=O)c2ccccc2C1=O` the IC50 was 20.1 µM. `O=C(N/N=C/c1ccccc1O)c1ccncc1` gave an IC50 of 24.7 µM. `CCN1CCN(CCNC(=O)c2ccc3c(c2)N(Cc2ccc(F)cc2)C(=O)/C(=C/c2ccccc2)S3)CC1` gave an IC50 of 125 µM. For `OC(CNCCc1ccccc1)COc1ccc(OCC(O)CNCCc2ccccc2)cc1` (stereo not drawn), the IC50 was 21.2 µM. `CC1CCC(C(C)C)C(OC(=O)Cn2c(COc3ccccc3)[n+](C)c3ccccc32)C1` (stereo not drawn) showed an IC50 of 51.5 µM. With `Cc1ccc(-c2c[n+](Cc3ccc(Cl)cc3)c3n2CCC3)cc1` the IC50 was 90.3 µM. Compound `Nc1nc2ccccc2n1Cc1ccc(Cl)c(Cl)c1` has an IC50 of 54.6 µM. For `COc1cc(Br)cc(/C=N/c2ncn[nH]2)c1O`, the IC50 was 81.3 µM. With `Clc1ccc(C(c2ccccc2)N2CCNCC2)cc1` (stereo not drawn) the IC50 was 144 µM. Work on `CC(=O)NC(=S)NNC(=O)c1ccc(Br)cc1` yielded an IC50 of 33.8 µM. Compound `O=C(N/N=C/c1cccs1)c1ccc2nc[nH]c2c1` has an IC50 of 136 µM. `CC(C)(C)/C(O)=C/c1nc2cc(Cl)ccc2oc1=O` gave an IC50 of 11.2 µM. `CNCCCC1Sc2ccccc2Oc2ccccc21` (stereo not drawn) was tested, and the IC50 was 144 µM. `CNCc1c(OCc2ccccc2F)ccc2ccccc12` was tested, and the IC50 was 127 µM. `O=C(NC(CO)Cc1ccc([N+](=O)[O-])cc1)C(Cl)Cl` (stereo not drawn) showed an IC50 of 4.59 µM. Work on `O=C(CN1C2=NCCCN2c2ccccc21)c1ccc(Br)s1` yielded an IC50 of 135 µM. With `CN1CCN(C(c2ccc(Cl)cc2)c2cc(Cl)c3cccnc3c2O)CC1` (stereo not drawn) the IC50 was 31.8 µM. `C#CCOCCOCCOCCNc1nc(N2CCN(C(=O)[C@H](Cc3cc4ccccc4[nH]3)n3cc([C@@H](N)C(C)CC)nn3)CC2)nc(N2CCN(C(=O)[C@H](Cc3cc4ccccc4[nH]3)n3cc([C@@H](N)Cc4ccc(O)cc4)nn3)CC2)n1` (stereo partly drawn) gave an IC50 of 60 µM. Compound `CCN(CC)c1ccc(CNc2nc3ccccc3n2C)cc1` has an IC50 of 97.3 µM. With `CC(=O)Nc1ccc(S(=O)(=O)NNc2cccc(C)c2)cc1` the IC50 was 58.9 µM. In the case of `CC[C@H]1OC(=O)[C@H](C)[C@@H](O[C@H]2C[C@@](C)(OC)[C@@H](O)[C@H](C)O2)[C@H](C)[C@@H](O[C@@H]2O[C@H](C)C[C@H](N(C)C)[C@H]2O)[C@](C)(O)C[C@@H](C)[C@@H]2N[C@@H](COCCOC)O[C@H]([C@H]2C)[C@]1(C)O`, the IC50 is reported as 45.4 µM. `Cc1cc(N=Nc2ccc(C)c(N=Nc3cc(C)c(N)cc3N)c2)c(N)cc1N` gave an IC50 of 108 µM. `CNC(=S)N1CCN(c2c(F)cc3c(=O)c(C(=O)O)cn(C4CC4)c3c2OC)CC1C` (stereo not drawn) gave an IC50 of 8.49 µM. `CN(C)C1C(=O)C(C(N)=O)=C(O)C2(O)C(=O)C3=C(O)c4c(O)cccc4C(C)(O)C3C(O)C12` (stereo not drawn) gave an IC50 of 1.54 µM. `CCN(CC)C(=S)SSC(=S)N(CC)CC` was tested, and the IC50 was 21.8 µM. `C1=C(CCNCc2ccccc2)CCCC1` showed an IC50 of 8.38 µM.
